# Reference: patent publication US9668948B2, “Products and methods for reducing malodor from the pudendum” (priority 2009, dated 2017)
# Experiments:
# [1] = 1 gram in ... ml of water; 25° C.; cited from earlier work
# Clostridium sporogenes = experiment: Suppression of trimethylamine (TMA) formation from choline by bacterial culture, headspace GC/FID; assay type: cell-based; conditions: added to the culture solution (internal standard mix)
# Procedure: A viable method was developed for the assay of trimethylamine (TMA). The method utilizes triethylamine and methanol together as internal standards and choline as the substrate for generating TMA from the bacterial species. The bacterial culture for these studies was Clostridium sporogenes, which was grown in house at BioScreen.
# Tests were conducted with a headspace gas chromatograph to verify that Clostridium sporogenes bacterial could actively generating trimethylamine from a choline substrate.
# Equipment for the testing included a Trace GC Ultra gas chormoatograph and a Varian CP-Volamine column. An FID detector was used with 2.5 mL/min helium flow.
# The bacterial species C. sporogenes, a species found in the lower GI tract. was inoculated into 100 mL of Fluid Thioglycolate medium and incubated at 35±2° C. for a minimum of 16 hours. At the end of incubation, the concentration of the bacterial suspension was confirmed by serial dilution in 9 mL PBS up to 10^−7 and anaerobic incubation at 32.5±2.5° C. for a minimum of 48 hours. Counts were recorded from dilution plates with 25 to 250 colonies. The average counts were multiplied by the reciprocal of the dilution factor to furnish the CFU/mL of the bacterial species. […]
Compound,solubility in water: ml of water for 1 gram [1],effect on reactivity of the bacterial culture with choline (Clostridium sporogenes)
O=C(O)C(O)c1ccccc1 (centres unmarked) [mandelic acid],6.3 mL,
benzalkonium chloride,,stops further reactivity
